The values that follow come from patent US9308200B2, “Dry powder formulation comprising a phosphodiesterase inhibitor” (CHIESI FARMACEUTICI S.p.A., priority 2010, dated 2016).

Molecules are shown by their SMILES.

For this assay, the system named is OVA-induced eosinophilia in BALF. As to the kind of experiment: Acute model of lung inflammation: OVA-induced eosinophilia in BALF of sensitized rats. In kind it is in vivo. The settings on record: male Brown-Norway rats; micronized C2 blended with lactose, intratracheal single dose 2 hours before antigen aerosol; range in brackets 0.016 to 0.051. The protocol: The potency of one of the preferred compounds of the present invention was evaluated in vivo in an acute model of lung inflammation following a method described in Eur. J. Pharmacol., 2002 Feb. 22; 437(3):187-94 (which is incorporated herein by reference in its entirety), with minor modifications. Briefly, male Brown-Norway rats (150-200 g) were sensitized by intraperitoneal injection of a suspension containing ovalbumin (OVA, 1 mg/rat) and Al(OH)3 (100 mg/rat) in 1 mL of saline for 3 consecutive days. Two-three weeks later, the airway inflammation was induced by inhaled antigen (OVA, 1% in saline). Vehicle-control treated animals were exposed to an aerosol of saline. […] For the detection of inhibitory potency, micronized compound C2 was blended with lactose at different concentrations and administered by the intratracheal route as single dose 2 hours before antigen aerosol.
A dose-response curve of the inhibitory effect of the test compound on OVA-induced eosinophilia in BALF was performed and the ED50 dose of compound C2 was taken as a measure of potency in this bioassay.

On to `CS(=O)(=O)Nc1ccc(C(=O)OC(Cc2c(Cl)c[n+]([O-])cc2Cl)c2ccc(OC(F)F)c(OCC3CC3)c2)cc1OCC1CC1` (single isomer, unassigned; (-)) [Compound C2, (−)-3-Cyclopropylmethoxy-4-methanesulfonylamino-benzoic acid 1-(3-cyclopropylmethoxy-4-difluoromethoxy-phenyl)-2-(3,5-dichloro-1-oxy-pyridin-4-yl)-ethyl ester], for which the “ED50 dose, inhibition of OVA-induced eosinophilia in BALF” value turned out to be 0.028 µmol/kg.
